Test results reported in patent publication US20200055839A1 (priority 2017, published 2020).

Tested on: NL-RLuc virus
Assay: Inhibition of HIV replication (NL-RLuc virus, luciferase readout in MT-2 cells)
Type: cell-based
Details: Human immunodeficiency virus 1, MT2, 120 h, MT-2 cells infected with NL-RLuc virus, 5 days of incubation, 10% FBS, at least 2 experiments
Outline: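 MT-2 cells infected with NL4-3-derived virus carrying Renilla luciferase in place of part of nef, grown 5 days with serial compound dilutions in RPMI 1640/10% FBS. Virus growth read as luciferase expression. EC50 from median effect equation, at least 2 experiments.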

Q: With Cc1ncc(-c2ccc(OC(C)C(C)C)nc2)c(N2CCC(C)(C)CC2)c1[C@H](OC(C)(C)C)C(=O)O (stereo partly drawn) [Example 438, (2S)-2-tert-Butoxy-2-(4-(4,4-dimethylpiperidin-1-yl)-6-methyl-6′-(3-methylbutan-2-yloxy)-3, 3′-bipyridin-5-yl)acetic acid] as the compound, how does the EC50 read?
A: 14 nM

Q: Cc1ncc(-c2ccccc2)c(N2CCC(C)(C)CC2)c1[C@H](OC(C)(C)C)C(=O)O [Example 134, (2S)-2-(tert-Butoxy)-2-[4-(4,4-dimethylpiperidin-1-yl)-2-methyl-5-phenylpyridin-3-yl]acetic acid] was tested. Which EC50 did it give?
A: 7 nM

Q: Which EC50 does the source give for Cc1ncc(-c2ccc(OCc3cccc(Cl)c3)cn2)c(N2CCC(C)(C)CC2)c1[C@H](OC(C)(C)C)C(=O)O [Example 337, (2S)-2-(tert-butoxy)-2-{5-[(3-chlorophenyl)methoxy]-4′-(4,4-dimethylpiperidin-1-yl)-6′-methyl-[2,3′-bipyridine]-5′-yl}acetic acid] here?
A: 2 nM

Q: For Cc1ncc(-c2ccc(OCC(C)C)nc2)c(N2CCC(C)(C)CC2)c1C(OC(C)(C)C)C(=O)O (stereo in doubt) [Example 409, (S)-2-(tert-butoxy)-2-(4-(4,4-dimethylpiperidin-1-yl)-6′-isobutoxy-6-methyl-[3,3′-bipyridin]-5-yl)acetic acid], which EC50 is on record?
A: 1 nM

Q: Cc1ncc(-c2cnc(O)c(F)c2)c(N2CCC(C)(C)CC2)c1[C@H](OC(C)(C)C)C(=O)O [Example 387, (2S)-2-(tert-butoxy)-2-[4-(4,4-dimethylpiperidin-1-yl)-5′-fluoro-6′-hydroxy-6-methyl-[3,3′-bipyridine]-5-yl]acetic acid] was tested. Which EC50 did it give?
A: 4000 nM

Q: Which EC50 does the source give for CC1(C)CCN(c2c(-c3ccccn3)cnc(Cl)c2[C@H](OC(C)(C)C)C(=O)O)CC1 [Example 223, (2S)-2-(tert-Butoxy)-2-[6′-chloro-4′-(4,4-dimethylpiperidin-1-yl)-[2, 3′-bipyridine]-5′-yl]acetic acid] here?
A: 15 nM

Q: For Cc1cccnc1Nc1nc(C)c([C@H](OC(C)(C)C)C(=O)O)c(N2CCC(C)(C)CC2)c1-c1ccc(OCCc2ccc(F)cc2)cc1 [Example 65, (S)-2-(tert-Butoxy)-2-(4-(4,4-dimethylpiperidin-1-yl)-5-(4-(4-fluorophenethoxy)phenyl)-2-methyl-6-((3-methylpyridin-2-yl)amino)pyridin-3-yl)acetic acid], which EC50 is on record?
A: 2 nM

Q: How did the EC50 turn out when Cc1ncc(-c2ccc(/C=C\C(C)C)nc2)c(N2CCC(C)(C)CC2)c1[C@H](OC(C)(C)C)C(=O)O [Example 422, (S,Z)-2-(tert-Butoxy)-2-(4-(4,4-dimethylpiperidin-1-yl)-6-methyl-6′-(3-methylbut-1-en-1-yl)-[3, 3′-bipyridin]-5-yl)acetic acid] was run?
A: 10 nM

Q: Which EC50 does the source give for CCCCN(C)c1ccc(-c2cnc(C)c([C@H](OC(C)(C)C)C(=O)O)c2N2CCC(C)(C)CC2)nc1 [Example 442, (S)-2-(tert-Butoxy)-2-(5-(butyl(methyl)amino)-4′-(4,4-dimethylpiperidin-1-yl)-6′-methyl-[2, 3′-bipyridin]-5′-yl)acetic acid] here?
A: 5 nM

Q: How did the EC50 turn out when Cc1ncc(-c2cc(F)cc(F)c2F)c(N2CCC(C)(C)CC2)c1[C@H](OC(C)(C)C)C(=O)O [Example 174, (2S)-2-(tert-Butoxy)-2-[4-(4,4-dimethylpiperidin-1-yl)-2-methyl-5-(2,3,5-trifluorophenyl)pyridin-3-yl]acetic acid] was run?
A: 11 nM

Q: CCCCCOc1ccc(-c2cnc(C)c([C@H](OC(C)(C)C)C(=O)O)c2N2CCC(C)(C)CC2)nc1 [Example 317, (2S)-2-(tert-butoxy)-2-[4′-(4,4-dimethylpiperidin-1-yl)-6′-methyl-5-(pentyloxy)-[2,3′-bipyridine]-5′-yl]acetic acid] was tested. Which EC50 did it give?
A: 1 nM

Q: Which EC50 does the source give for Cc1ncc(-c2cnc(OCCc3c(F)cccc3F)c(F)c2)c(N2CCC(C)(C)CC2)c1[C@H](OC(C)(C)C)C(=O)O [Example 393, (2S)-2-(tert-butoxy)-2-{6′-[2-(2,6-difluorophenyl)ethoxy]-4-(4,4-dimethylpiperidin-1-yl)-5′-fluoro-6-methyl-[3,3′-bipyridine]-5-yl}acetic acid] here?
A: 2 nM
